# In ChEMBL document CHEMBL1201862, “PubChem BioAssay data set” (2004):
#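 Values below derive from 48-hour exposures of cells grown in 96-well plates, with endpoints linearly interpolated between the two concentrations bracketing the appropriate inhibition level. At the GI50, growth is halved.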 Activity calls are given as the source filed them. Rule as the data show it: active = GI50 up to about 1.1 µM and inactive = higher.
# Key:
# Assay in all cases: growth of human tumour cells (NCI), 48 h
# HL-60 = test system: HL-60
# HOP-62 = test system: HOP-62
# BT-549 = test system: BT-549
# SNB-75 = test system: SNB-75
# OVCAR-5 = test system: OVCAR-5
# IGROV-1 = test system: IGROV-1
# UO-31 = test system: UO-31
# HCT-15 = test system: HCT-15
# SN12C = test system: SN12C
# SK-MEL-28 = test system: SK-MEL-28
# ACHN = test system: ACHN
# HT-29 = test system: HT-29
# OVCAR-8 = test system: OVCAR-8
# A498 = test system: A498
# SR = test system: SR
# PC-3 = test system: PC-3
# NCI-H226 = test system: NCI-H226
# SNB-19 = test system: SNB-19
# EKVX = test system: EKVX
SMILES,GI50 (HL-60),GI50 (HOP-62),GI50 (BT-549),GI50 (SNB-75),GI50 (OVCAR-5),GI50 (IGROV-1),GI50 (UO-31),GI50 (HCT-15) [µM],GI50 (SN12C),GI50 (SK-MEL-28),GI50 (ACHN),GI50 (HT-29),GI50 (OVCAR-8),GI50 (A498),GI50 (SR),GI50 (PC-3),GI50 (NCI-H226),GI50 (SNB-19),GI50 (EKVX)
Cn1c(=S)c2nc(SCCCc3ccccc3)[nH]c2n(C)c1=O,18.2 µM (inactive),17.3 µM (inactive),45.1 µM (inactive),22.6 µM (inactive),20.7 µM (inactive),35.6 µM (inactive),14.4 µM (inactive),29.8,26.5 µM (inactive),46.6 µM (inactive),27.2 µM (inactive),22.8 µM (inactive),28.2 µM (inactive),18.4 µM (inactive),4.85 µM (inactive),36.8 µM (inactive),21.5 µM (inactive),16.6 µM (inactive),13.7 µM (inactive)
O=C1Nc2ccccc2/C1=N/Nc1ccccc1Cl,68.1 µM (inactive),11.1 µM (inactive),> 100 µM (inactive),22.1 µM (inactive),51.8 µM (inactive),1.78 µM (inactive),18.7 µM (inactive),> 100,21.7 µM (inactive),> 100 µM (inactive),3.58 µM (inactive),> 100 µM (inactive),20.6 µM (inactive),18.7 µM (inactive),7.62 µM (inactive),> 100 µM (inactive),53.2 µM (inactive),29.8 µM (inactive),14.5 µM (inactive)
C/C(=N\NC(=O)c1ccncc1)c1ccccc1Cl,> 100 µM (inactive),> 100 µM (inactive),> 100 µM (inactive),> 100 µM (inactive),> 100 µM (inactive),> 100 µM (inactive),> 100 µM (inactive),> 100,> 100 µM (inactive),> 100 µM (inactive),> 100 µM (inactive),> 100 µM (inactive),> 100 µM (inactive),> 100 µM (inactive),> 100 µM (inactive),> 100 µM (inactive),> 100 µM (inactive),> 100 µM (inactive),> 100 µM (inactive)
Cc1ccc(C2(C)CC/C(=N/N=C3/CCC(C)(c4ccc(C)c(C)c4)c4cc(C)c(C)cc43)c3cc(C)c(C)cc32)cc1C (stereo not drawn),> 100 µM (inactive),> 100 µM (inactive),> 100 µM (inactive),> 100 µM (inactive),> 100 µM (inactive),> 100 µM (inactive),> 100 µM (inactive),> 100,> 100 µM (inactive),> 100 µM (inactive),> 100 µM (inactive),> 100 µM (inactive),> 100 µM (inactive),> 100 µM (inactive),> 100 µM (inactive),> 100 µM (inactive),> 100 µM (inactive),> 100 µM (inactive),> 100 µM (inactive)
Cc1cc2nc(C=C(C(F)(F)F)C(F)(F)F)sc2cc1C,0.482 µM (active),3.05 µM (inactive),0.855 µM (active),1.16 µM (inactive),2.59 µM (inactive),2.21 µM (inactive),2.53 µM (inactive),1.71,0.501 µM (active),3.01 µM (inactive),2.99 µM (inactive),0.929 µM (active),0.908 µM (active),4.2 µM (inactive),0.0923 µM (active),1.65 µM (inactive),1.21 µM (inactive),3.44 µM (inactive),2.15 µM (inactive)
O=C1CC2(CCN(CC3COc4ccccc4O3)CC2)C(=O)N1N1CCCCCC1 (stereo not drawn),17.6 µM (inactive),> 100 µM (inactive),61.7 µM (inactive),76.4 µM (inactive),48.5 µM (inactive),> 100 µM (inactive),> 100 µM (inactive),> 100,> 100 µM (inactive),> 100 µM (inactive),73.5 µM (inactive),21.4 µM (inactive),64.6 µM (inactive),> 100 µM (inactive),> 100 µM (inactive),27.5 µM (inactive),51.9 µM (inactive),> 100 µM (inactive),> 100 µM (inactive)
NC1=Nc2cc(C(F)(F)F)ccc2Sc2nc3ccccc3n21,3.15 µM (inactive),> 60 µM (inactive),> 100 µM (inactive),19.9 µM (inactive),> 52.8 µM (inactive),> 25.7 µM (inactive),> 20.5 µM (inactive),> 100,57.5 µM (inactive),> 100 µM (inactive),> 78.9 µM (inactive),12.6 µM (inactive),12.5 µM (inactive),> 45.5 µM (inactive),3.61 µM (inactive),10.3 µM (inactive),12.1 µM (inactive),15.6 µM (inactive),13.8 µM (inactive)
Cc1ccccc1C(=O)N/N=C/c1ccc(Sc2nccn2C)c([N+](=O)[O-])c1,44.3 µM (inactive),80.2 µM (inactive),67.1 µM (inactive),63.2 µM (inactive),> 100 µM (inactive),35.6 µM (inactive),> 100 µM (inactive),66.8,> 100 µM (inactive),> 100 µM (inactive),> 100 µM (inactive),41.3 µM (inactive),72.1 µM (inactive),> 100 µM (inactive),40 µM (inactive),67.8 µM (inactive),> 100 µM (inactive),> 100 µM (inactive),64.9 µM (inactive)
CSc1c(C(=O)Nc2ccccc2)c(N)nn1-c1ccccc1,> 100 µM (inactive),,> 100 µM (inactive),> 100 µM (inactive),> 100 µM (inactive),,67.9 µM (inactive),> 100,> 100 µM (inactive),> 100 µM (inactive),,> 100 µM (inactive),> 100 µM (inactive),> 100 µM (inactive),> 100 µM (inactive),> 100 µM (inactive),> 100 µM (inactive),> 100 µM (inactive),> 100 µM (inactive)
O=[N+]([O-])c1cc(F)ccc1S(=O)(=O)c1ccccc1,> 10 µM (inactive),> 10 µM (inactive),> 10 µM (inactive),> 10 µM (inactive),> 10 µM (inactive),> 10 µM (inactive),,> 10,> 10 µM (inactive),> 10 µM (inactive),> 10 µM (inactive),> 10 µM (inactive),> 10 µM (inactive),> 10 µM (inactive),> 10 µM (inactive),> 10 µM (inactive),> 10 µM (inactive),> 10 µM (inactive),5.14 µM (inactive)
Cc1c(-c2ccccc2)[nH]n(C2=NCCN2)c1=O,88.5 µM (inactive),> 100 µM (inactive),> 100 µM (inactive),30.4 µM (inactive),> 100 µM (inactive),67.8 µM (inactive),85.1 µM (inactive),> 100,,,> 100 µM (inactive),46.3 µM (inactive),> 100 µM (inactive),> 100 µM (inactive),> 100 µM (inactive),> 100 µM (inactive),52.8 µM (inactive),> 100 µM (inactive),> 100 µM (inactive)
